{"source": "patent US8628750B2", "about": "“Cancer imaging and treatment” (Technische Universitat Munchen, priority 2006, dated 2014)", "key": {"human CXCR4 [1]": {"molecular_target": "T1, human CXCR4 (Homo sapiens, UniProt P61073)", "T1 sequence (P61073 whole entry)": "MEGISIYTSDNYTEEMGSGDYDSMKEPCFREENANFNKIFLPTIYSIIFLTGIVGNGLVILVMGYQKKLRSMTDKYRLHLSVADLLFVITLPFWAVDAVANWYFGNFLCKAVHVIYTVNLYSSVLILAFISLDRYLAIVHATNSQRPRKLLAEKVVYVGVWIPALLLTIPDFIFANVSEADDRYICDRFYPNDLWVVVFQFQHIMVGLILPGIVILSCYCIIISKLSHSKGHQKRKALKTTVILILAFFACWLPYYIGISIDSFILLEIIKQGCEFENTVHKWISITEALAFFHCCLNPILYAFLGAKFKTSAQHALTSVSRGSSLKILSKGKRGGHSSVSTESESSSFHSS", "experiment": "cell-based", "format": "binding", "design": "Jurkat cells that endogenously express the CXCR4 receptor; endogenous in cells; host or cells: Jurkat (ATCC)", "protocol": "For receptor binding assays cells were resuspended in PBS/0.2% BSA. A total of 200 μl of the suspension containing 400,000 cells (Jurkat, CMS5) or 200,000 cells (CMS5/CXCR4) were incubated with 25 μl of the tracer solution (containing 3.1 kBq, approx. 0.1 nM) and 25 μl of the diluent or the competitor at different concentrations. […] After shaking for 2 h at room temperature, the incubation was terminated by centrifugation at 700×g and 4° C. for 4 min. Cell pellets were washed once with cold PBS followed by a second centrifugation step or for internalization studies, two times with an acidic wash buffer (20 mM NaOAc, pH5.0). Cell bound radioactivity was determined by using a gamma counter. Experiments were repeated 2-3 times in duplicates or triplicates. IC50 values of the binding curves were calculated by nonlinear regression on a one-site or two-site competition based model using Prism 3.0 (Graph Pad Software, Inc, San Diego). KD and Bmax values were determined by nonlinear regression with the Prism 3.0 according to the manufacturer's protocol."}, "human CXCR4 [2]": {"molecular_target": "T1, human CXCR4", "protocol": "CXCR4 expression on the cell surface of trypsinized cells was determined using a phycoerythrine (PE)-labeled monoclonal rat antibody with specificity for human CXCR4 (1D9, BD Biosciences Pharmingen, Heidelberg, Germany). Trypsinized cells were washed with FACS buffer (PBS, 0.5% FCS) and 1×10^6 cells were stained with 0.5 μg antibody for 30 min. in the dark at 4° C. Cells were extensively washed with ice-cold FACS buffer and analyzed by flow cytometry. Nonspecific staining was assessed by PE-conjugated rat IgG2b,κ (BD Biosciences Pharmingen, Heidelberg, Germany). […] CXCR-4 staining was plotted against EGFP fluorescence (FL1).\n(adapted from protocols published previously)[7, 8]; controls were incubated with diluent (PBS/0.1% BSA). Samples were immediately transferred to ice to avoid further internalization, centrifuged, washed with PBS/0.5% BSA and FACS staining for CXCR4 was performed as indicated above."}}, "note": "Like-named read-outs stand apart in the source and are kept apart here. Numbered stars: 1 amine (or outer) side, 2 acyl side, 3 side chain; on linkers, the order of the positions; unused ones are H or OH. Square brackets hold non-standard residues; d marks the D form. Peptide text beside a SMILES is read from it. * marks the point of attachment. X3 = O=C(c1ccc(F)cc1)N(CCC[C@H](N[*:1])C(=O)[*:2])Cc1ccccc1; X1 = CN(CCC[C@H](C(=O)[*:2])N(C)[*:1])C(=O)c1ccc(F)cc1; X2 = O=C([C@H](CCCNCc1cccc2ccccc12)N[*:1])[*:2]; X4 = O=C([C@H](CCCNCc1ccc2ccccc2c1)N[*:1])[*:2]; 2Nal = N[C@@H](Cc1ccc2ccccc2c1)C(=O)O; Benzoyl(4-F) = O=C(c1ccc(F)cc1)*; dOrn = NCCC[C@@H](N)C(=O)O; Orn = NCCC[C@H](N)C(=O)O", "data": [{"compound": "N=C(N)NCCC[C@@H]1NC(=O)[C@H](CCCNC(=N)N)NC(=O)[C@@H](Cc2ccc(O)cc2)NC(=O)CNC(=O)[C@H](Cc2ccc3ccccc3c2)NC(=O)[C@H](Cc2ccc3ccccc3c2)NC1=O", "note": "[BL 42, cyc[D-Tyr-Arg-Arg-Nal-Nal-Gly]] (cyclo([2Nal][2Nal]G[dY]RR))", "values": [{"measurement": "IC50", "setting": "human CXCR4 [1]", "result": "> 1000", "unit": "nM"}]}, {"compound": "CN(CCC[C@@H]1C(=O)N[C@@H](CCCNC(=N)N)C(=O)N[C@@H](Cc2ccc3ccccc3c2)C(=O)NCC(=O)N[C@H](Cc2ccc(O)cc2)C(=O)N1C)C(=O)c1ccc(F)cc1", "note": "[cyc[D-Tyr-(Me)D-Orn(Me,FB)-Arg-Nal-Gly]] (cyclo([2Nal]G[dY][X1]R))", "values": [{"measurement": "IC50", "setting": "human CXCR4 [1]", "result": 59, "unit": "nM"}]}, {"compound": "N=C(N)NCCC[C@@H]1NC(=O)[C@@H](CCCNC(=O)c2ccc(F)cc2)NC(=O)[C@@H](Cc2ccc(O)cc2)NC(=O)CNC(=O)[C@H](Cc2ccc3ccccc3c2)NC1=O", "note": "[cyc[D-Tyr-D-Orn(FB)-Arg-Nal-Gly]] (cyclo([2Nal]G[dY][dOrn](Benzoyl(4-F))R))", "values": [{"measurement": "IC50", "setting": "human CXCR4 [1]", "result": 86, "unit": "nM"}]}, {"compound": "N=C(N)NCCC[C@@H]1NC(=O)[C@H](CCCN(Cc2ccccc2)C(=O)c2ccc(F)cc2)NC(=O)[C@@H](Cc2ccc(O)cc2)NC(=O)CNC(=O)[C@H](Cc2ccc3ccccc3c2)NC1=O", "note": "[cyc[D-Tyr-Orn(Bz,FB)-Arg-Nal-Gly]] (cyclo([2Nal]G[dY][X3]R))", "values": [{"measurement": "IC50", "setting": "human CXCR4 [1]", "result": 100, "unit": "nM"}]}, {"compound": "N=C(N)NCCC[C@@H]1NC(=O)[C@H](CCCNC(=O)c2ccc(F)cc2)NC(=O)[C@@H](Cc2ccc(O)cc2)NC(=O)CNC(=O)[C@H](Cc2ccc3ccccc3c2)NC1=O", "note": "[cyc[D-Tyr-Orn(FB)-Arg-Nal-Gly]] (cyclo([dY][Orn](Benzoyl(4-F))R[2Nal]G))", "values": [{"measurement": "IC50", "setting": "human CXCR4 [1]", "result": 11, "unit": "nM"}]}, {"compound": "N=C(N)NCCC[C@@H]1NC(=O)[C@H](CCCNCc2cccc3ccccc23)NC(=O)[C@@H](Cc2ccc(O)cc2)NC(=O)CNC(=O)[C@H](Cc2ccc3ccccc3c2)NC1=O", "note": "[cyc[D-Tyr-Orn(N1)-Arg-Nal-Gly]] (cyclo([dY][X2]R[2Nal]G))", "values": [{"measurement": "IC50", "setting": "human CXCR4 [1]", "result": "40 ± 3", "unit": "nM"}]}, {"compound": "N=C(N)NCCC[C@@H]1NC(=O)[C@H](CCCNCc2ccc3ccccc3c2)NC(=O)[C@@H](Cc2ccc(O)cc2)NC(=O)CNC(=O)[C@H](Cc2ccc3ccccc3c2)NC1=O", "note": "[cyc[D-Tyr-Orn(N2)-Arg-Nal-Gly]] (cyclo([dY][X4]R[2Nal]G))", "values": [{"measurement": "IC50", "setting": "human CXCR4 [1]", "result": "49 ± 1", "unit": "nM"}]}, {"compound": "SDF-1α", "values": [{"measurement": "cells stained positive for CXCR4 after pre-incubation", "setting": "human CXCR4 [2]; CMS5/CXCR4 cells, 100 nM SDF-1α, 1 hr at 37° C., control-treated […]", "result": 54.7, "unit": "%"}, {"measurement": "mean fluorescence intensity of CXCR4 staining", "setting": "human CXCR4 [2]; CMS5/CXCR4 cells, mock treated 209.0", "result": 80.5}, {"measurement": "mean fluorescence intensity of CXCR4 staining", "setting": "human CXCR4 [2]; Jurkat cells, drop from 385.4", "result": 155.4}, {"measurement": "CXCR4-background staining", "setting": "human CXCR4 [2]; parental CMS5 cells, in the presence of SDF-1α, from 7.9", "result": 2.7, "unit": "%"}]}]}
